In paper PMC10272112 (Nature Communications, 2023):

Columns and labels:
Test in all cases: Chemoproteomic competition pulldown assay (co-competed CoREST partner)
Type in all cases: binding
[1] = test system: HMG20A
Procedure: (§1) To identify proteins directly bound by lipoic acid, we employed a chemoproteomic competition assay. Briefly, (R/S)-LA was immobilized on sepharose beads via an amidation reaction to form an affinity matrix (abbreviated as iL; Fig. 1a). This affinity matrix can be incubated with cell lysate to pull down potential LA or LM target proteins and identify these targets via bottom-up proteomics. In a competition assay, free LA or LM were incubated with lysate at different concentrations before pulling down and quantifying target proteins. […] (Fig. 1b, see “Methods” for details). […] The lysate buffer used in this assay contains 1 mM DTT to mimic the intracellular reductive milieu and to reduce lipoic acid and LM. […] Additional competition assays performed in lung adenocarcinoma cell A549 lysate also identified HDAC1, HDAC2, and HDAC6 as targets (Supplementary Fig. 1b). Amongst the three cell lines tested, HDACs were the only confidently identified targets across the 1500–3000 proteins quantified in these assays. […] We validated the results by analogous pulldown competition assays using two other affinity matrices prepared via the immobilization of either the HDAC inhibitor Quisinostat (iQ) and an analog of the class IIa HDAC inhibitor Bürli’s 31[14] (iC)[12]. We have previously shown that these affinity matrices specifically bind to the active sites of HDACs and have used them for HDACi selectivity profiling. Indeed, binding of (R/S)-LA and (R/S)-LM to HDAC1, HDAC2, HDAC3, HDAC6, and, to a lesser extent, HDAC8 was confirmed in these assays (Supplementary Fig. 1c, d). No binding to class IIa HDACs or the recently discovered common HDAC inhibitor off-target MBLAC2 was observed (Supplementary Fig. 1e)[12]. […] This observation might reflect electrostatic repulsion between the HDAC10 active site gate-keeper glutamic acid residues[15],[16] and the terminal carboxylic acid of LA.
(§2) To assess the degree of protein depletion from lysates by the affinity matrix, a second pulldown (PDPD) with fresh beads was performed using the unbound protein fraction from the vehicle control flow through. The beads were washed (1 × 1 mL of lysis buffer without inhibitors and only 0.4% Igepal, 2 × 2 mL of lysis buffer without inhibitors and only 0.2% Igepal), and captured proteins were denatured with 8 M urea buffer, alkylated with 55 mM chloroacetamide and digested with Trypsin according to standard procedures. The resulting peptides were desalted on a C18 filter plate (Sep-Pak® tC18 µElution Plate, Waters), vacuum dried, and stored at −20 °C until LC–MSMS measurement.
(§3) For the competition assays, relative binding was calculated based on the protein intensity ratio to the DMSO control for every single inhibitor concentration. EC50 values were derived from a four-parameter log-logistic regression with variable slope (constrain: bottom > 0). The obtained EC50 values were multiplied with a protein-dependent correction factor (cf), resulting in the apparent Kd value (Kd^app). The correction factor is determined by calculating the ratio of the protein intensity of two consecutive pulldowns of the vehicle control sample[13]. Targets of the inhibitors were annotated manually according to published procedures[12],[46],[47]. […] Additionally, the number of unique peptides and MSMS counts per condition were taken into account. Positive target binding across several independent experiments performed with different cell lysates further substantiated our confidence for a true positive drug-target binding event.

[2] = test system: RCOR3
Procedure: as §1, §2, §3

[3] = test system: RCOR1
Procedure: as §1, §2, §3

[4] = test system: HMG20B
Procedure: as §1, §2, §3

[5] = iL, A549 lysate, log10 M -4.52288
[6] = iL, A549 lysate, log10 M -5.52288
[7] = iL, A549 lysate, log10 M -6.52288
[8] = iL, A549 lysate, log10 M -7.52288
[9] = iL, A549 lysate, log10 M -8.52288
[10] = iQ, SW620 lysate, log10 M -3.52288
[11] = iQ, SW620 lysate, log10 M -4.52288
[12] = iQ, SW620 lysate, log10 M -5.52288
[13] = iQ, SW620 lysate, log10 M -6.52288
[14] = iL, MV4-11 lysate, log10 M -3.52288
[15] = iL, MV4-11 lysate, log10 M -4.52288
[16] = iL, MV4-11 lysate, log10 M -5.52288
[17] = iL, MV4-11 lysate, log10 M -6.52288

SMILES: O=C(O)CCCCC1CCSS1 (racemic) [(R/S)-LA, (R/S)-lipoic acid]
- relative binding vs DMSO ([1]; iL, A549 lysate, log10 M -4): 0
- relative binding vs DMSO [1, 5]: 0
- relative binding vs DMSO ([1]; iL, A549 lysate, log10 M -5): 0
- relative binding vs DMSO [1, 6]: 0.4211
- relative binding vs DMSO ([1]; iL, A549 lysate, log10 M -6): 0.8299
- relative binding vs DMSO [1, 7]: 0.9993
- relative binding vs DMSO [1, 8]: 1.185
- relative binding vs DMSO ([1]; iL, A549 lysate, log10 M -8): 1.321
- relative binding vs DMSO [1, 9]: 1.259
- relative binding vs DMSO [1, 10]: 0.2638
- relative binding vs DMSO ([1]; iQ, SW620 lysate, log10 M -4): 0.07541
- relative binding vs DMSO [1, 11]: 0.5511
- relative binding vs DMSO ([1]; iQ, SW620 lysate, log10 M -5): 0.4652
- relative binding vs DMSO [1, 12]: 0.8795
- relative binding vs DMSO ([1]; iQ, SW620 lysate, log10 M -6): 0.793
- relative binding vs DMSO [1, 13]: 1.133
- relative binding vs DMSO ([1]; iQ, SW620 lysate, log10 M -7): 0.8444
- relative binding vs DMSO ([2]; iL, A549 lysate, log10 M -4): 0
- relative binding vs DMSO [2, 5]: 0
- relative binding vs DMSO ([2]; iL, A549 lysate, log10 M -5): 0
- relative binding vs DMSO [2, 6]: 0
- relative binding vs DMSO ([2]; iL, A549 lysate, log10 M -6): 0.7701
- relative binding vs DMSO [2, 7]: 1.109
- relative binding vs DMSO [2, 8]: 1.217
- relative binding vs DMSO ([2]; iL, A549 lysate, log10 M -8): 1.199
- relative binding vs DMSO [2, 9]: 1.533
- relative binding vs DMSO [2, 10]: 0.06142
- relative binding vs DMSO ([2]; iQ, SW620 lysate, log10 M -4): 0.2749
- relative binding vs DMSO [2, 11]: 0.55
- relative binding vs DMSO ([2]; iQ, SW620 lysate, log10 M -5): 0.4741
- relative binding vs DMSO [2, 12]: 0.7307
- relative binding vs DMSO ([2]; iQ, SW620 lysate, log10 M -6): 0.7404
- relative binding vs DMSO [2, 13]: 0.7642
- relative binding vs DMSO ([2]; iQ, SW620 lysate, log10 M -7): 0.7542
- relative binding vs DMSO ([3]; iL, A549 lysate, log10 M -4): 0.04582
- relative binding vs DMSO [3, 5]: 0.0556
- relative binding vs DMSO ([3]; iL, A549 lysate, log10 M -5): 0.1265
- relative binding vs DMSO [3, 6]: 0.344
- relative binding vs DMSO ([3]; iL, A549 lysate, log10 M -6): 0.6862
- relative binding vs DMSO [3, 7]: 1.238
- relative binding vs DMSO [3, 8]: 0.8815
- relative binding vs DMSO ([3]; iL, A549 lysate, log10 M -8): 1.065
- relative binding vs DMSO [3, 9]: 1.673
- relative binding vs DMSO ([3]; iL, SW620 lysate, log10 M -3.52288): 0
- relative binding vs DMSO ([3]; iL, SW620 lysate, log10 M -4): 0
- relative binding vs DMSO ([3]; iL, SW620 lysate, log10 M -4.52288): 0.2767
- relative binding vs DMSO ([3]; iL, SW620 lysate, log10 M -5): 0.2629
- relative binding vs DMSO ([3]; iL, SW620 lysate, log10 M -5.52288): 0.4301
- relative binding vs DMSO ([3]; iL, SW620 lysate, log10 M -6): 0.8481
- relative binding vs DMSO ([3]; iL, SW620 lysate, log10 M -6.52288): 1.192
- relative binding vs DMSO ([3]; iL, SW620 lysate, log10 M -7): 0.8783
- relative binding vs DMSO [3, 10]: 0.1176
- relative binding vs DMSO ([3]; iQ, SW620 lysate, log10 M -4): 0.1659
- relative binding vs DMSO [3, 11]: 0.5043
- relative binding vs DMSO ([3]; iQ, SW620 lysate, log10 M -5): 0.4267
- relative binding vs DMSO [3, 12]: 0.9917
- relative binding vs DMSO ([3]; iQ, SW620 lysate, log10 M -6): 1.001
- relative binding vs DMSO [3, 13]: 0.9723
- relative binding vs DMSO ([3]; iQ, SW620 lysate, log10 M -7): 0.6892
- relative binding vs DMSO ([4]; iL, A549 lysate, log10 M -4): 0.09481
- relative binding vs DMSO [4, 5]: 0
- relative binding vs DMSO ([4]; iL, A549 lysate, log10 M -5): 0
- relative binding vs DMSO [4, 6]: 0
- relative binding vs DMSO ([4]; iL, A549 lysate, log10 M -6): 0.5309
- relative binding vs DMSO [4, 7]: 1.1771
- relative binding vs DMSO [4, 8]: 1.54
- relative binding vs DMSO ([4]; iL, A549 lysate, log10 M -8): 1.531
- relative binding vs DMSO [4, 9]: 0.9986
- relative binding vs DMSO [4, 10]: 0.2338
- relative binding vs DMSO ([4]; iQ, SW620 lysate, log10 M -4): 0.0385
- relative binding vs DMSO [4, 11]: 0.4714
- relative binding vs DMSO ([4]; iQ, SW620 lysate, log10 M -5): 0.5482
- relative binding vs DMSO [4, 12]: 0.8626
- relative binding vs DMSO ([4]; iQ, SW620 lysate, log10 M -6): 0.8649
- relative binding vs DMSO [4, 13]: 1.158
- relative binding vs DMSO ([4]; iQ, SW620 lysate, log10 M -7): 1.067

SMILES: NC(=O)CCCCC1CCSS1 (racemic) [(R/S)-LM, (R/S)-lipoamide]
- relative binding vs DMSO [1, 14]: 0.1398
- relative binding vs DMSO ([1]; iL, MV4-11 lysate, log10 M -4): 0.1277
- relative binding vs DMSO [1, 15]: 0.1925
- relative binding vs DMSO ([1]; iL, MV4-11 lysate, log10 M -5): 0.5136
- relative binding vs DMSO [1, 16]: 0.6563
- relative binding vs DMSO ([1]; iL, MV4-11 lysate, log10 M -6): 0.8243
- relative binding vs DMSO [1, 17]: 0.9555
- relative binding vs DMSO ([1]; iL, MV4-11 lysate, log10 M -7): 1.012
- relative binding vs DMSO [1, 10]: 0.03313
- relative binding vs DMSO ([1]; iQ, SW620 lysate, log10 M -4): 0.1846
- relative binding vs DMSO [1, 11]: 0.4151
- relative binding vs DMSO ([1]; iQ, SW620 lysate, log10 M -5): 0.6118
- relative binding vs DMSO [1, 12]: 0.969
- relative binding vs DMSO ([1]; iQ, SW620 lysate, log10 M -6): 0.8792
- relative binding vs DMSO [1, 13]: 0.8032
- relative binding vs DMSO ([1]; iQ, SW620 lysate, log10 M -7): 1.062
- relative binding vs DMSO [2, 14]: 0.04482
- relative binding vs DMSO ([2]; iL, MV4-11 lysate, log10 M -4): 0.03145
- relative binding vs DMSO [2, 15]: 0.2203
- relative binding vs DMSO ([2]; iL, MV4-11 lysate, log10 M -5): 0.5854
- relative binding vs DMSO [2, 16]: 0.7487
- relative binding vs DMSO ([2]; iL, MV4-11 lysate, log10 M -6): 1.237
- relative binding vs DMSO [2, 17]: 1.016
- relative binding vs DMSO ([2]; iL, MV4-11 lysate, log10 M -7): 0.9839
- relative binding vs DMSO [2, 10]: 0.0548
- relative binding vs DMSO ([2]; iQ, SW620 lysate, log10 M -4): 0.3164
- relative binding vs DMSO [2, 11]: 0.4259
- relative binding vs DMSO ([2]; iQ, SW620 lysate, log10 M -5): 0.6647
- relative binding vs DMSO [2, 12]: 0.7959
- relative binding vs DMSO ([2]; iQ, SW620 lysate, log10 M -6): 1.1558
- relative binding vs DMSO [2, 13]: 0.7323
- relative binding vs DMSO ([2]; iQ, SW620 lysate, log10 M -7): 0.9341
- relative binding vs DMSO [3, 14]: 0.05785
- relative binding vs DMSO ([3]; iL, MV4-11 lysate, log10 M -4): 0.0548
- relative binding vs DMSO [3, 15]: 0.1462
- relative binding vs DMSO ([3]; iL, MV4-11 lysate, log10 M -5): 0.4201
- relative binding vs DMSO [3, 16]: 0.5816
- relative binding vs DMSO ([3]; iL, MV4-11 lysate, log10 M -6): 0.5592
- relative binding vs DMSO [3, 17]: 0.7783
- relative binding vs DMSO ([3]; iL, MV4-11 lysate, log10 M -7): 0.8248
- relative binding vs DMSO [4, 14]: 0.0242
- relative binding vs DMSO ([4]; iL, MV4-11 lysate, log10 M -4): 0.0521
- relative binding vs DMSO [4, 15]: 0.1443
- relative binding vs DMSO ([4]; iL, MV4-11 lysate, log10 M -5): 0.4724
- relative binding vs DMSO [4, 16]: 0.6292
- relative binding vs DMSO ([4]; iL, MV4-11 lysate, log10 M -6): 0.8935
- relative binding vs DMSO [4, 17]: 0.8513
- relative binding vs DMSO ([4]; iL, MV4-11 lysate, log10 M -7): 1.055
